The test system of test [1] is arachidonic acid-induced pulmonary embolism. Kind of test: Effect on arachidonic acid-induced pulmonary embolism (in vivo). As to conditions: Mus musculus; oral, 3 hours before arachidonic acid; dose required to shorten the recovery time by at least 15% vs control; read-out: Minimum Effective Dose, inhibiting effect on arachidonic acid-induced pulmonary embolism. More on the design: species or system ddy-male mice. As to the method:
A test compound (suspended or dissolved in an aqueous sodium bicarbonate and 0.25% carboxymethylcellulose solution) was orally administered to ddy-male mice (5 weeks old, 10 mice per group) fasted overnight. Three hours later, arachidonic acid (125 mg/2.5 ml of 1% NaHCO3 solution+7.5 ml of 0.9% aqueous sodium chloride/kg) was injected to the tail vein of mice to induce pulmonary embolism, and the recovery time(minutes) of locomotive activity of the mice (i.e., the duration from the injection of arachidonic acid to the time the mice recovered from respiratory distress and began to walk) was compared with that of a control group of mice to which an aqueous 0.25% CMC solution was administered instead of the test compound solution. The inhibiting effect of each test compound on arachidonic acid-induced pulmonary embolism was estimated in terms of a minimum effective dose, i.e., the dose required to shorten the recovery time by at least 15% as compared with the control group.

Test [2] deals with collagen-induced platelet aggregation. Briefly: Effect on collagen-induced platelet aggregation (in vitro). Particulars: for IC50: 2 min, human platelet-rich plasma, 4×10^5 cells/mm^3, 2 minutes at 37° C., Born's method, read-out: IC50, collagen-induced platelet aggregation-inhibiting activity. Format: cell-based, human. As to the method:
Nine volumes of blood collected from a healthy human were mixed with one volume of 3.13% (w/v) trisodium citrate solution, and the mixture was centrifuged to give platelet-rich plasma ("PRP") as the supernatant. The bottom layer was further centrifuged to give platelet-poor plasma ("PPP") as the supernatant. PRP was diluted with PPP so that the platelet count was about 4×10^5 cells/mm^3. 25 μl of a test compound solution containing an equimolar amount of sodium bicarbonate was added to 200 μl of said diluted PRP. After the mixture was stirred for 2 minutes at 37° C., a collagen solution [25-29 μg/ml solution: Biochim. Biophys. Acta, 186, 254 (1969)] was added thereto to induce platelet aggregation. The degree of platelet aggregation was examined by Born's method (Nature, 194, 927 (1962)), and the platelet aggregation-inhibiting activity of the test compound was estimated. The platlet aggregation-inhibiting activity of the test compound was expressed as IC50, i.e., the concentration of the test compound required to induce 50% inhibition of collagen-induced platelet aggregation.

In the next test the test system is bleeding time. Briefly: Effect on bleeding time (in vivo). The arrangement: species or system ddy-male mice. As to conditions: Mus musculus; oral, 3 hours before tail cut; dose required to induce at least 50% prolongation of bleeding time vs control; read-out: minimum effective dose, prolonging effect on the bleeding time. Here is the method: A test compound (suspended or dissolved in an aqueous 0.25% carboxymethylcellulose solution) was orally administered to ddy-male mice (5 weeks old, 10 mice per group) fasted overnight. Three hours later, the tip (ca. 2 mm) of the tail was cut off under ether anesthesia, and said tail was immersed in physiological saline (37° C.) immediately. The bleeding time (seconds) of the medicated group of mice was compared with that of a control group of mice to which an aqueous 0.25% CMC solution was administered instead of the test compound solution. The prolonging effect of each test compound on the bleeding time was estimated in terms of a minimum effective dose, i.e., the dose required to induce at least 50% prolongation of the bleeding time as compared with that of the control group.

This is an account of results in patent US4866196A, “Phenoxyacetic acid derivatives and preparation thereof” (Tanabe Seiyaku Co., Ltd., priority 1986, dated 1989).

≈ marks a conversion by molar mass, not a printed value.

Broadly, the IC50 is the concentration at which inhibition is half-maximal. With `CC(Cc1ccc(OCC(=O)O)cc1)NS(=O)(=O)c1ccc(Cl)cc1` (racemic) [Compound No. 1, (±)4-[2(4-chlorophenyl)sulfonylaminopropyl]phenoxyacetic acid], the minimal effective dose was 1 mg/kg in test [1] and 3 mg/kg in the test with bleeding time. Besides, the 50% inhibitory concentration (IC50) in test [2] worked out at 0.7 µg/mL (≈ 1.82 µM).

As to `CC(CNS(=O)(=O)c1ccc(Cl)cc1)c1ccc(OCC(=O)O)cc1` (racemic) [Compound No. 2, (±)4-[2(4-chlorophenyl)sulfonylamino-1-methylethyl]phenoxyacetic acid], the minimal effective dose worked out at 0.3 mg/kg in test [1] and 10 mg/kg in the test on bleeding time. The IC50 in test [2] was determined as 0.5 µg/mL (≈ 1.3 µM). In addition, the “platelet aggregation-inhibiting activity relative to 4-(2-benzenesulfonylaminoethyl)phenoxyacetic acid” value in test [2] (in vitro, times as strong as known compound of JP 35910/1982) is listed as “about 4 times”.

For `CC(CNS(=O)(=O)c1ccc(Br)cc1)c1ccc(OCC(=O)O)cc1` (racemic) [Compound No. 3, (±)4-[2(4-bromophenyl)sulfonylamino-1-methylethyl]phenoxyacetic acid], the minimal effective dose in test [1] amounted to 0.1 mg/kg; in the test with bleeding time, 10 mg/kg. Besides, the IC50 in test [2] worked out at 0.5 µg/mL (≈ 1.17 µM).

Take `CC(CNS(=O)(=O)c1ccccc1)c1ccc(OCC(=O)O)c(F)c1` (racemic) [Compound No. 4, (±)4-(2-benzenesulfonylamino-1-methylethyl)-2-fluorophenoxyacetic acid]: the minimal effective dose in test [1] is 0.1 mg/kg.

On to `CC(CNS(=O)(=O)c1ccc(Cl)cc1)c1ccc(OCC(=O)O)c(F)c1` (racemic) [Compound No. 5, (±)4-(2-(4-chlorophenyl)sulfonylamino-1-methylethyl)-2-fluorophenoxyactic acid], for which, in test [1], the minimal effective dose was 0.03 mg/kg.

As for `O=C(O)COc1ccc(CCNS(=O)(=O)c2ccccc2)cc1` [Known Compound, 4-(2-benzenesulfonylaminoethyl)phenoxyacetic acid, reference compound], the minimal effective dose (in test [1]; in the test with bleeding time) was 30 mg/kg throughout. In addition, the IC50 in test [2] is 2 µg/mL (≈ 5.96 µM).
